Legend:
MOLT-4 = test: Cell growth test (Cell Titer Blue) MOLT-4; format: cell-based; conditions: Homo sapiens, 72 h, MOLT-4, Acute lymphoblastic leukemia, 3 days
Method: (§1) Moreover, the compound of Example 14 was subjected to a cell growth test using various types of cell lines.
(§2) All cell lines other than the below-noticed cells were each seeded in a well plate, in which an RPMI-1640 medium supplemented with penicillin/streptomycin and FBS with a final concentration of 10% was placed. The human prostate cancer cell line VCaP (ATCC) was seeded in a well plate, in which DMEM medium supplemented with penicillin/streptomycin and FBS with a final concentration of 10% was placed. […] Thereafter, using Enspire Multimode Plate Reader (PerkinElmer), the amount of fluorescence at an excitation wavelength of 531 nm and a fluorescence wavelength of 615 nm was measured. Since the amount of fluorescence is in proportion to the concentration of a florescent product resorufin that is converted from resazurin as a redox dye by living cells, the amount of fluorescence was used as an indicator of the number of living cells. The growth inhibition percentage of the test compound in each concentration was calculated according to the following equation. Growth inhibition percentage (%)=(amount of fluorescence in test compound−added well)/(amount of fluorescence in DMSO−added well)×100 […]

SU-DHL-1 = test: Cell growth test (Cell Titer Blue) SU-DHL-1; format: cell-based; conditions: Homo sapiens, 72 h, SU-DHL-1, Lymphoma, 3 days
Method: as §1, §2

[1] = system: human lymphoma cell line OCI-Ly7; test: Cell growth test (Cell Titer Blue) OCI-LY7; format: cell-based; conditions: 72 h, 3 days
Method: as §1, §2

MDA-MB-453 = test: Cell growth test (Cell Titer Blue) MDA-MB-453; format: cell-based; conditions: Homo sapiens, 72 h, MDA-MB-453, Breast cancer, 3 days
Method: as §1, §2

MKN45 = test: Cell growth test (Cell Titer Blue) MKN45; format: cell-based; conditions: Homo sapiens, MKN-45, 72 h, MKN45, Stomach cancer, 3 days
Method: as §1, §2

K-562 = test: Cell growth test (Cell Titer Blue) K-562; format: cell-based; conditions: Homo sapiens, K562, 72 h, K-562, Chronic myeloid leukemia, 3 days
Method: as §1, §2

LNCaP = test: Cell growth test (Cell Titer Blue) LNCaP; format: cell-based; conditions: Homo sapiens, 72 h, Prostate cancer, 3 days
Method: as §1, §2

PC-3 = test: Cell growth test (Cell Titer Blue) PC-3; format: cell-based; conditions: Homo sapiens, 72 h, PC-3, Prostate cancer, 3 days
Method: as §1, §2

SU-DHL-4 = test: Cell growth test (Cell Titer Blue) SU-DHL-4; format: cell-based; conditions: Homo sapiens, 72 h, SU-DHL-4, Lymphoma, 3 days
Method: as §1, §2

MOLT-3 = test: Cell growth test (Cell Titer Blue) MOLT-3; format: cell-based; conditions: Homo sapiens, 72 h, MOLT-3, Acute lymphoblastic leukemia, 3 days
Method: as §1, §2

U-937 = test: Cell growth test (Cell Titer Blue) U-937; format: cell-based; conditions: Homo sapiens, 72 h, U-937, Lymphoma, 3 days
Method: as §1, §2

HT-29 = test: Cell growth test (Cell Titer Blue) HT-29; format: cell-based; conditions: Homo sapiens, 72 h, HT-29, Colon cancer, 3 days
Method: as §1, §2

[2] = Intravenous administration toxicity test on rats; format: in vivo, rat
Method: With reference to the above-described findings, the compound of the present example was administered to rats via repeated intravenous administration, and the influence of the compound on the body weight and the digestive tract was then evaluated.
The compound of Example 14 was dissolved in a solvent (a normal saline containing 1 equivalent of hydrochloric acid), and the obtained solution was then intravenously administered to 6-week-old male SD rats (Charles River Laboratories Japan) at a dose of 30 to 60 mg/kg, once a day, for 7 days. As a negative control, a solvent administration group involving administration of a normal saline was established. At the time of the final administration, the plasma concentration of the compound of Example 14 was measured. […] Moreover, a weight reduction was not observed during the administration period. Furthermore, on the day following the final administration, pathological evaluation was carried out.

SW-620 = test: Cell growth test (Cell Titer Blue) SW-620; format: cell-based; conditions: Homo sapiens, 72 h, SW-620, Colon cancer, 3 days
Method: as §1, §2

SK-HEP-1 = test: Cell growth test (Cell Titer Blue) SK-HEP-1; format: cell-based; conditions: Homo sapiens, SK-HEP1, 72 h, SK-HEP-1, Liver cancer, 3 days
Method: as §1, §2

[3] = male SD rats, intravenously 30 to 60 mg/kg, once a day, 7 days

GI50 (MOLT-4): 57 nM
GI50 (SU-DHL-1): 1260 nM
GI50 [1]: 274 nM
GI50 (MDA-MB-453): 115 nM
GI50 (MKN45): 2180 nM
GI50 (K-562): 17 nM
GI50 (LNCaP): 64 nM
GI50 (PC-3): 175 nM
GI50 (SU-DHL-4): 49 nM
GI50 (MOLT-3): 317 nM
GI50 (U-937): 286 nM
GI50 (HT-29): 120 nM
GI50 (SW-620): 273 nM
GI50 (SK-HEP-1): 2500 nM
Structure (SMILES): CCn1c(=O)cc(C2CCN(C)CC2)c2cc(C(=O)N(C)c3ccc(C)cc3)ccc21 [Example 14, 1-Ethyl-N-methyl-N-(4-methylphenyl)-4-(1-methylpiperidin-4-yl)-2-oxo-1,2-dihydroquinoline-6-carboxamide]
plasma concentration at the time of the final administration [2, 3]: increased in proportion to the applied dose
weight reduction during the administration period [2, 3]: not observed
pathological evaluation of gastrointestinal epithelial cells including gastrointestinal epithelial stem cells ([2]; male SD rats, intravenously 30 to 60 mg/kg, once a day, 7 days, day following the final administration): no disorders were found
AUC without weight reduction relative to the AUC upon intravenous administration in Test Example 3 ([2]; rats, intravenous): 3.8 times

From patent US10987349B2, “Antitumor agent and bromodomain inhibitor” (FUJIFILM Corporation, priority 2016, dated 2021)
